Consider 2 compounds from ChEMBL document CHEMBL5725797, “Heterocyclic compounds and their use as glycogen synthase kinase-3 inhibitors” (2018).

What is called pIC50 is the negative decadic logarithm of the IC50, by convention in mol/L.

The assay has as its target Glycogen synthase kinase-3 beta (Homo sapiens, UniProt P49841). The assay is described as follows: Biochemical hGSK-3Beta Assay: Compounds were tested for their ability to inhibit human Glycogen Synthase Kinase-3 beta (hGSK-3β) to phosphorylate biotin-[…](pS)EDEEE. Compounds were incubated with 0.5 μCi 33P-ATP, 10 μM ATP, 0.0125 U hGSK-3β (Upstate cell signaling solutions) and 1 μM substrate (biotin-[…](pS)EDEEE) in 50 mM HEPES, 10 mM MgCl2, 100 mM Na3VO4, 1 mM DTT, 0.0075% Triton, 2% DMSO (total volume 50 μL) for 30 minutes at room temperature. The incubation was stopped by addition of an equal volume of 100 mM EDTA, 4M NaCl. 80 μL of this mixture was added to streptavidin-coated Flash-plates (PerkinElmer). Following a wash step, 33P incorporation was quantified on a MicroBeta microplate liquid scintillation counter (Perkin Elmer). IC50s were determined by fitting a sigmoidal dose-response curve to the counts obtained at the different concentrations in GraphPad Prism.

pIC50: −log10 of the molar value.

Glycogen synthase kinase-3 beta, sequence (P49841 whole entry): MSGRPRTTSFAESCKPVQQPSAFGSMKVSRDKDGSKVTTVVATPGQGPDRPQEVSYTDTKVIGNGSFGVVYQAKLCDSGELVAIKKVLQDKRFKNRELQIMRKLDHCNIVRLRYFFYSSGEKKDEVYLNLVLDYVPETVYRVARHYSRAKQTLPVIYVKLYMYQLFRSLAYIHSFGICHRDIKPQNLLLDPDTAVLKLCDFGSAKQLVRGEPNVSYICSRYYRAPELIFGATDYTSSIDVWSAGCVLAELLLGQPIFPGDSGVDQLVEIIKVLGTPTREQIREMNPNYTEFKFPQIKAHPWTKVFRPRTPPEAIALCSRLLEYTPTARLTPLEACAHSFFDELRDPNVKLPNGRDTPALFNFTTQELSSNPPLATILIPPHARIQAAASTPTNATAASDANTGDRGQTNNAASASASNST

As for `N#Cc1ccc2c(c1)C(c1ccc3c(n1)CCCC3=O)C(=O)N2` (configuration not stated), the pIC50 is above 7.00.
Under `N#Cc1ccc2c(c1)C(c1ccc3c(n1)C(O)CCC3)C(=O)N2` (configuration not stated) stands above 7.00.
